Values joined by “and” are separate entries in the source; they are usually repeats but may differ in a detail not shown here. Identical values can stand only once.
Assay: Adverse events (TEAEs, SAEs, AESI; Safety Analysis Set)
[1] = Table 43, Part 1, 100 mg QD (N = 31)

With `CC(=O)N[C@H]1CC[C@H](NC(=O)CN2CCN(c3nncc(-c4ccc(C)cc4)n3)CC2)CC1` [Compound A HBr] the “TEAE leading to permanent discontinuation from study drug, Vascular disorders, %” value (Part 1, Active (N = 133)) was “(2.3) %”, the “Subjects with TEAEs considered at least possibly related to study drug” value (Part 1, active drug, listed as lorundrostat) was 27 (20.3%) subjects (%) and the “AE requiring dose titration: Hyperkalemia” value (Part 1 All active, N 159) was 6 (3.8%). For the same compound, the “AE requiring dose titration: Hyponatremia” value (Part 1 All active, N 159) was 0, the “AE requiring dose titration: Other possibly related” value (Part 1 All active, N 159) was 0 and the “AE requiring dose titration: Other unrelated” value (Part 1 All active, N 159) was 1 (0.6%). For the same compound, the “AE requiring study drug discontinuation: Hyperkalemia” value (Part 1 All active, N 159) was 6 (3.8%), the “AE requiring study drug discontinuation: Hyponatremia” value (Part 1 All active, N 159) was 0 and the “AE requiring study drug discontinuation: Hypotension” value (Part 1 All active, N 159) was 2 (1.2%). The “AE requiring study drug discontinuation: Other possibly related” value (Part 1 All active, N 159) was 1 (0.6%), the “AE requiring study drug discontinuation: Other unrelated” value (Part 1 All active, N 159) was 11 (6.9%) and the Deaths (Part 1 or Part 2) was “No deaths”. For the same compound, the “Subjects with TEAE resulting in dose modification” value (Part 2) was 7 subjects, the Muscle spasms (Part 2 100 mg QD cohort) was 3 (9.7%) subjects (%) and the “Subjects with ≥1 moderate on-treatment TEAE” value (Part 2 100 mg QD cohort) was 12 (38.7%) subjects (%). The “AE requiring dose titration: Hyperkalemia” value (Part 2 100 mg QD, N 31) was 1 (3.2%), the “AE requiring dose titration: Hyponatremia” value (Part 2 100 mg QD, N 31) was 1 (3.2%) and the “AE requiring dose titration: Other possibly related” value (Part 2 100 mg QD, N 31) was 0. The “AE requiring dose titration: Other unrelated” value (Part 2 100 mg QD, N 31) was 0, the “AE requiring study drug discontinuation: Hyperkalemia” value (Part 2 100 mg QD, N 31) was 0 and the “AE requiring study drug discontinuation: Hyponatremia” value (Part 2 100 mg QD, N 31) was 1 (3.4%). For the same compound, the “AE requiring study drug discontinuation: Hypotension” value (Part 2 100 mg QD, N 31) was 1 (2.8%), the “AE requiring study drug discontinuation: Other possibly related” value (Part 2 100 mg QD, N 31) was 0 and the “AE requiring study drug discontinuation: Other unrelated” value (Part 2 100 mg QD, N 31) was 1 (2.8%). For the same compound, the “Subjects with any On-treatment TEAEs leading to withdrawal from study drug, %” value (Part 2, 100 mg QD (N = 31)) was 6.5%, the “TEAE leading to permanent withdrawal from study drug, Glomerular filtration rate decreased, %” value (Part 2, 100 mg QD (N = 31)) was 3.2% and the “TEAE leading to permanent withdrawal from study drug, Hyponatraemia, %” value (Part 2, 100 mg QD (N = 31)) was 3.2%. For the same compound, the “TEAE leading to permanent withdrawal from study drug, Investigations, %” value (Part 2, 100 mg QD (N = 31)) was 3.2%, the “TEAE leading to permanent withdrawal from study drug, Metabolism and nutrition disorders, %” value (Part 2, 100 mg QD (N = 31)) was 3.2% and the “TEAE leading to permanent withdrawal from study drug, Muscle spasms, %” value (Part 2, 100 mg QD (N = 31)) was 3.2%. The “TEAE leading to permanent withdrawal from study drug, Musculoskeletal and connective tissue disorders, %” value (Part 2, 100 mg QD (N = 31)) was 3.2%, the “Subjects with TEAEs considered at least possibly related to study drug” value (Part 2, lorundrostat) was 9 subjects (%) and 9 (29.0%) subjects (%) and the “On-treatment TEAE, Chronic kidney disease, %” value [1] was “(6.5) %”. The “On-treatment TEAE, Chronic kidney disease, Mild, %” value [1] was “(6.5) %”, the “On-treatment TEAE, Diarrhoea, %” value [1] was “(6.5) %” and the “On-treatment TEAE, Diarrhoea, Mild, %” value [1] was “(6.5) %”. The “On-treatment TEAE, Dizziness, %” value [1] was “(6.5) %”, the “On-treatment TEAE, Dizziness, Mild, %” value [1] was “(6.5) %” and the “On-treatment TEAE, Gastrointestinal disorders, %” value [1] was “(16.1) %”. The “On-treatment TEAE, Gastrointestinal disorders, Mild, %” value [1] was “(9.7) %”, the “On-treatment TEAE, Gastrointestinal disorders, Moderate, %” value [1] was “(6.5) %” and the “On-treatment TEAE, Hyperkalaemia, %” value [1] was “(25.8) %”. For the same compound, the “On-treatment TEAE, Hyperkalaemia, Mild, %” value [1] was “(9.7) %”, the “On-treatment TEAE, Hyperkalaemia, Moderate, %” value [1] was “(16.1) %” and the “On-treatment TEAE, Hyponatraemia, %” value [1] was “(6.5) %”. For the same compound, the “On-treatment TEAE, Infections and infestations, %” value [1] was “(16.1) %”, the “On-treatment TEAE, Infections and infestations, Mild, %” value [1] was “(6.5) %” and the “On-treatment TEAE, Infections and infestations, Moderate, %” value [1] was “(9.7) %”. The “On-treatment TEAE, Investigations, %” value [1] was “(6.5) %”, the “On-treatment TEAE, Metabolism and nutrition disorders, %” value [1] was “(32.3) %” and the “On-treatment TEAE, Metabolism and nutrition disorders, Mild, %” value [1] was “(6.5) %”. For the same compound, the “On-treatment TEAE, Metabolism and nutrition disorders, Moderate, %” value [1] was “(22.6) %”, the “On-treatment TEAE, Muscle spasms, %” value [1] was “(9.7) %” and the “On-treatment TEAE, Muscle spasms, Moderate, %” value [1] was “(6.5) %”. The “On-treatment TEAE, Musculoskeletal and connective tissue disorders, %” value [1] was “(16.1) %”, the “On-treatment TEAE, Musculoskeletal and connective tissue disorders, Mild, %” value [1] was “(6.5) %” and the “On-treatment TEAE, Musculoskeletal and connective tissue disorders, Moderate, %” value [1] was “(9.7) %”. For the same compound, the “On-treatment TEAE, Nausea, %” value [1] was “(6.5) %”, the “On-treatment TEAE, Nausea, Mild, %” value [1] was “(6.5) %” and the “On-treatment TEAE, Nervous system disorders, %” value [1] was “(6.5) %”. The “On-treatment TEAE, Nervous system disorders, Mild, %” value [1] was “(6.5) %”, the “On-treatment TEAE, Renal and urinary disorders, %” value [1] was “(6.5) %” and the “On-treatment TEAE, Renal and urinary disorders, Mild, %” value [1] was “(6.5) %”. The “On-treatment TEAE, Urinary tract infection, %” value [1] was “(6.5) %”, the “Subjects with any On-treatment TEAEs, Mild, %” value [1] was “(19.4) %” and the “Subjects with any On-treatment TEAEs, Moderate, %” value [1] was “(38.7) %”. The “Subjects with any On-treatment TEAEs, Severe, %” value [1] was “(3.2) %”, the “AE requiring dose titration: Hyperkalemia” value (Total active, N 190) was 7 (4.1%) and the “AE requiring dose titration: Hyponatremia” value (Total active, N 190) was 1 (0.5%). The “AE requiring dose titration: Other possibly related” value (Total active, N 190) was 0, the “AE requiring dose titration: Other unrelated” value (Total active, N 190) was 1 (0.5%) and the “AE requiring study drug discontinuation: Hyperkalemia” value (Total active, N 190) was 6 (3.2%). For the same compound, the “AE requiring study drug discontinuation: Hyponatremia” value (Total active, N 190) was 1 (0.5%), the “AE requiring study drug discontinuation: Hypotension” value (Total active, N 190) was 3 (1.6%) and the “AE requiring study drug discontinuation: Other possibly related” value (Total active, N 190) was 1 (0.5%). For the same compound, the “AE requiring study drug discontinuation: Other unrelated” value (Total active, N 190) was 12 (6.3%), the “Subjects who developed orthostatic hypotension” value (fall of 20 mmHg in SBP or 10 mmHg in DBP sitting to standing) was “three” and the “Subjects with hypotension related to treatment” value (two in 100 mg QD cohorts (Part 1, Part 2), one 12.5 mg BID, reversible with treatment cessation) was “three”. The “Overall safety and tolerability” value (whole study) was “safe and well tolerated”.

Source: patent publication US20260053812A1, “METHODS OF TREATING HYPERTENSION WITH A COMBINATION OF AN ALDOSTERONE SYNTHASE INHIBITOR AND A DIURETIC” (Mineralys Therapeutics, Inc., priority 2022, published 2026)
